From ChEMBL document CHEMBL2146471, “Derivatives of heteroarylsulfonamides, their preparation, and their application in human therapy: patent highlight” (ACS Med Chem Lett, 2012)

Target: Potassium voltage-gated channel subfamily A member 5 (Homo sapiens) (UniProt P22460)
Experiment: Inhibition of Kv1.5 ion channel expressed in HEK293 cells at 10 uM by FLIPR assay
Type: cell-based

Sequence of Potassium voltage-gated channel subfamily A member 5 (Homo sapiens) (P22460 whole entry): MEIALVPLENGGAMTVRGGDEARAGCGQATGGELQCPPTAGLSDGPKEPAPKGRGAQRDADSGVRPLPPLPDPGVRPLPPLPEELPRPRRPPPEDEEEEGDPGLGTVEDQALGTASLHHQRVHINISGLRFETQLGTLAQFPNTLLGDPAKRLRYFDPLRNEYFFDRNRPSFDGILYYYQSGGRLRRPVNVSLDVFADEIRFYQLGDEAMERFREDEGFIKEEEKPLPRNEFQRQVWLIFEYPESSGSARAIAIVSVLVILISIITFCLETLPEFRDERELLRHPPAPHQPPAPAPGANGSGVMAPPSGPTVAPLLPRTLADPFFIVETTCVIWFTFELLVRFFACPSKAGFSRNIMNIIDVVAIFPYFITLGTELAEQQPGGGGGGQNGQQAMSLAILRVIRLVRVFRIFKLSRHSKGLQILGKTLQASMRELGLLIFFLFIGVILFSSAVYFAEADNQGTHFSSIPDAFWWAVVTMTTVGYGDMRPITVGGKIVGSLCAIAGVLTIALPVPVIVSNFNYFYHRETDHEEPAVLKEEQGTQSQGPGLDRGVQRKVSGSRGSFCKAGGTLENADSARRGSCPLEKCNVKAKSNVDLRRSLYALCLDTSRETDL

For `O=S(=O)(Nc1ccccc1OC1CCN(c2nc3ccc(Br)cc3s2)CC1)c1ccccn1`, the inhibition was 100%.

With `O=C(c1ccccc1NS(=O)(=O)c1ccccn1)N1CCN(c2nc3ccc(Br)cc3s2)CC1` the inhibition was 100%.

`O=C(c1cccc(NS(=O)(=O)c2ccccn2)c1)N1CCN(c2nc3ccc(Cl)cc3s2)CC1` gave an inhibition of 75.1%.

Molecule `O=C(c1ccc(NS(=O)(=O)c2ccccn2)cc1)N1CCN(c2nc3ccc(F)cc3s2)CC1` has an inhibition of 100%.

`O=S(=O)(Nc1ccccc1OCC1CCN(c2nc3ccccc3s2)C1)c1ccccn1` (stereo not given) was tested, and the inhibition was 76%.
